For assay [1], the system named is NO production in rat resident macrophages. The assay can be described thus: LPS-/cytokine-induced NO production (nitrite) in rat resident peritoneal macrophages. The class given is cell-based. The note with it: for inhibition at 20000 µM: Rattus norvegicus, Macrophage. The protocol:
Isolation of Rat Macrophages and Induction of NO Production Resident macrophages were obtained from rats by peritoneal lavage with sterile RPMI 1640 medium containing 1% fetal bovine serum and 100 μg/ml gentamicin (Wang et al., 1995). Cells were washed three times with RPMI 1640 at 4° C. All cell cultures were maintained at 37° C. in a humidified incubator containing 5% CO2 in air. Macrophages, at a concentration of 2×10^6/ml in RPMI 1640 medium containing L-glutamine and gentamicin, were added in volumes of 800 μl to a 35 mm plate. After 1 h, nonadherent cells were removed by washing and 800 μl of serum-free RPMI 1640 medium with various stimuli were added to the adherent cells. After 24 h incubation in 5% CO2 in air at 37° C., the culture supernatants were transferred to measure NO production (Geng et al., 1995; Wang et al., 1995).
Isolation of rat macrophages and induction of NO production Resident macrophages were obtained from rat by peritoneal lavage with sterile RPMI 1640 medium containing 1% fetal bovine serum and 100 μg/ml gentamicin as described herein. Cells were washed three times with RPMI 1640 at 4° C. All cell cultures were maintained at 37° C. in a humidified incubator containing 5% CO2 in air. Macrophages at a concentration of 2×10^6/ml in RPMI 1640 medium containing L-glutamine and gentamicin were added in volumes of 800 μl to a 35 mm plate. After 1 h, nonadherent cells were removed by washing and 800 μl of serum-free RPMI 1640 medium with various stimuli were added to the adherent cells. After incubation in 5% CO2 in air at 37° C., culture supernatants were transferred to measure NO production.
Isolation of rat macrophages and induction of NO production Resident macrophages were obtained from rat by peritoneal lavage with sterile RPMI 1640 medium containing 1% FBS and 100 μg/ml gentamicin. Cells were washed three times with RPMI 1640 at 4° C., and were maintained at 37° C. in a humidified incubator containing 5% CO2 in air. Macrophages at a concentration of […] in RPMI 1640 medium containing L-glutamine and gentamicin were added in volumes of 800 μl to a 35-mm plate. After 1 h, nonadherent cells were removed by washing, and 800 μl of serum-free RPMI 1640 medium with various stimuli was added to the adherent cells. After 24 h the culture supernatants were transferred to measure NO production.
Protein was measured (Bradford, 1976).

Assay [2] has as its system IL-1β production in rat primary astrocytes. The experiment in a line: LPS-induced IL-1β production (ELISA) in rat primary astrocytes. The class given is cell-based. The protocol: Determination of TNF-α and IL-1β in culture supernatants Cells were stimulated with LPS in serum-free media for 24 h in the presence or absence of forskolin or rolipram, and concentrations of TNF-α and IL-1β were measured in culture supernatants by using high-sensitivity enzyme-linked immunosorbent assay (R&D Systems, USA) according to the manufacturer's instructions.

Assay [3] concerns IL-6 production in rat primary astrocytes. The assay can be described thus: LPS-induced IL-6 production (ELISA) in rat primary astrocytes. The class given is cell-based.
Assay [4] concerns control human skin fibroblasts. The experiment in a line: β-oxidation of lignoceric acid in control human skin fibroblasts. The class given is cell-based.
The test system of another assay is EAE in female Lewis rats. The experiment in a line: Experimental allergic encephalomyelitis (EAE), clinical score. In kind it is in vivo. The procedure:
Rats were induced with EAE by injecting intradermally 50 μg of myelin basic protein (MBP) per animal emulsified in complete Freund's adjuvant (CFA) into the medial footpad of each hind leg on day 1 followed by a booster injection on the 7th day under ether anesthesia. Clinical symptoms in these rats manifest as an ascending paralysis resulting in death in most animals. The signs of EAE were scored as: (0) normal; (1) piloerection; […] (4) paraplegia; and (5) moribund. […] One group of animals induced for EAE was left untreated while another group of animals was not induced for EAE and used as the control group.

Assay [5] relates to TNF-α production in rat resident macrophages. The assay can be described thus: LPS-/IFN-γ-induced TNF-α production (ELISA) in rat macrophages. In kind it is cell-based.
Another assay concerns IFN-γ. The assay can be described thus: Immunohistochemistry of IFN-γ in brain sections of EAE rats. In kind it is in vivo, Lewis rats. The protocol: One group of animals induced for EAE was left untreated while another group of animals was not induced for EAE and used as the control group.
Immunohistochemistry Brains were fixed in 10% buffered formalin (Stephens Scientific, Riverdale, N.J.). The tissues were embedded in paraffin and sectioned at 4 μm. Sections were then stained for various cytokines and cell markers as described below. For single-label immunohistochemistry, sections were incubated with either anti-iNOS antibody (1:100, rabbit polyclonal, Calbiochem, LaJolla, Calif.) or anti-TNF-α antibody (1:100, rabbit polyclonal, Genzyme, Cambridge, Mass.) or anti-IFN-γ antibody (1:200, rabbit polyclonal, Biosource International, Camarillo, Calif.) essentially as described for other antibodies (Hooper et al., 1997). The tissue sections were further incubated with FITC conjugated anti-rabbit IgG (1:100, Sigma, St. Louis, Mo.), mounted with mounting media (EMS) and analyzed by immunofluorescence microscopy (Olympus) using Adobe photoshop software. For immunofluorescent double-labeling, sections were incubated first with anti-iNOS (1:100) followed by macrophage marker ED1 (1:100, mouse monoclonal, Biosource International, Camarillo, Calif.). Anti-iNOS was visualized using TRITC conjugated anti-rabbit IgG—(1:100, Sigma, St. Louis, Mo.) and ED1 using FITC conjugated anti-mouse IgG (1:100, Sigma, St. Louis, Mo.). […]

[6] abbreviates: Macrophages, 10 μM lovastatin or 5 mM NaPA 8 h, then LPS 1.0 μg/ml, 24 h.
The mark [7] stands for this setting: Astrocytes, 10 μM lovastatin or 5 mM NaPA 8 h, then LPS 1.0 μg/ml, 24 h.
[8] abbreviates: treatment from first day of immunization.

Read-outs that look alike come from different tables or passages of the source.

For `CC[C@H](C)C(=O)O[C@H]1C[C@@H](C)C=C2C=C[C@H](C)[C@H](CC[C@@H]3C[C@@H](O)CC(=O)O3)[C@H]21` [Lovastatin], the “Production of NO” value in assay [1] (setting [6]) came to 7.2 ± 0.9 nmol/24 h/mg protein. The “Production of IL-1β” value in assay [2] (setting [7]) was 0.8 ± 0.1 ng/24 h/mg protein. The “Production of IL-6” value in assay [3] (setting [7]) was 6.9 ± 0.9 ng/24 h/mg protein. Moreover, the “Lignoceric acid β-oxidation” value in assay [4] (72 h, Lovastatin 5 μM, Mevastatin 5 μM, NaPA 5 mM, Control 570.2 ± 52.3) was determined as 945.7 ± 105.6 pmol/h/mg protein. Besides, in the assay with EAE in female Lewis rats (setting [8]), the “protection against EAE disease” value is on record as “significantly delayed the onset of first of clinical symptom”. For the same compound, the “Production of TNF-α” value in assay [5] (setting [6]) came to 1.2 ± 0.1 ng/24 h/mg protein.
Take `CC(=O)N[C@@H](CS)C(=O)O` [NAC, N-acetyl cysteine]: the Nitrite is listed as 9.9 ± 1.8 nmol/mg/24 h in assay [1] (IFN-γ 200 U/ml, NAC 20 mM 2 h before); 9.2 ± 0.7 nmol/mg/24 h in assay [1] (IL-1β 200 ng/ml, NAC 20 mM 2 h before); 25.2 ± 3.9 nmol/mg/24 h in assay [1] (LPS 0.2 μg/ml + IFN-γ 50 U/ml, NAC 20 mM 2 h before); 28.4 ± 3.7 nmol/mg/24 h in assay [1] (LPS 0.2 μg/ml + IL-1β 25 ng/ml, NAC 20 mM 2 h before); 13.6 ± 2.6 nmol/mg/24 h in assay [1] (LPS 0.2 μg/ml + TNF-α 20 ng/ml, NAC 20 mM 2 h before); 11.6 ± 1.5 nmol/mg Protein^24h in assay [1] (LPS 1.0 μg/ml, 24 h, NAC 20 mM 2 h before LPS, NMA 0.1 mM, arginase 100 units/ml with LPS). Further, the Nitrite is 11.6 ± 1.5 nmol/mg/24 h in assay [1] (LPS 1.0 μg/ml, NAC 20 mM 2 h before); 6.2 ± 0.8 nmol/mg Protein^24h in assay [1] (NAC 20 mM alone, no LPS, 24 h); 29.6 ± 4.2 nmol/mg/24 h in assay [1] (TNF-α 20 ng/ml + IFN-γ 50 U/ml, NAC 20 mM 2 h before); 22.8 ± 2.7 nmol/mg/24 h in assay [1] (TNF-α 20 ng/ml + IL-1β 25 ng/ml, NAC 20 mM 2 h before); 10.1 ± 1.6 nmol/mg/24 h in assay [1] (TNF-α 100 ng/ml, NAC 20 mM 2 h before); 6.2 ± 0.8 nmol/mg/24 h in assay [1] (no stimulus (Control), NAC 20 mM). Further, the “rate of nitrite accumulation” value in assay [1] (LPS 1.0 μg/ml, NAC 20 mM, onset of NO release until 24 h, 5.2 in the absence of NAC) amounted to 0.5 nmol/mg/h. Besides, the inhibition at 20000 µM turned out to be 20% in assay [1] (7 h, NAC 20 mM added 7 h after the addition of LPS, read-out: inhibition of nitrite production); 89% in assay [1] (IFN-γ 200 U/ml, NAC 20 mM 2 h before, read-out: Inhibition (%) of nitrite); 57% in assay [1] (IL-1β 200 ng/ml, NAC 20 mM 2 h before, read-out: Inhibition (%) of nitrite); 84% in assay [1] (LPS 0.2 μg/ml + IFN-γ 50 U/ml, NAC 20 mM 2 h before, read-out: Inhibition (%) of nitrite); 81% in assay [1] (LPS 0.2 μg/ml + IL-1β 25 ng/ml, NAC 20 mM 2 h before, read-out: Inhibition (%) of nitrite); 92% in assay [1] (LPS 0.2 μg/ml + TNF-α 20 ng/ml, NAC 20 mM 2 h before, read-out: Inhibition (%) of nitrite). Also, the inhibition at 20000 µM in assay [1] (LPS 1.0 μg/ml, NAC 20 mM 2 h before, read-out: Inhibition (%) of nitrite) was 91%; in assay [1] (NAC 20 mM, 2 h before LPS, read-out: inhibition of LPS-mediated nitrite production), more than 90%; in assay [1] (TNF-α 20 ng/ml + IFN-γ 50 U/ml, NAC 20 mM 2 h before, read-out: Inhibition (%) of nitrite) it was 79%; in assay [1] (TNF-α 20 ng/ml + IL-1β 25 ng/ml, NAC 20 mM 2 h before, read-out: Inhibition (%) of nitrite) it was 83%; in assay [1] (TNF-α 100 ng/ml, NAC 20 mM 2 h before, read-out: Inhibition (%) of nitrite) it was 64%; in assay [1] (no stimulus (Control), NAC 20 mM, read-out: Inhibition (%) of nitrite), 37%. In assay [1] (of LPS (1.0 μg/ml)-induced nitrite, NAC 20 mM 2 h before, NMA 0.1 mM, arginase 100 units/ml with LPS, read-out: Inhibition (%)), the inhibition at 20000 µM came out at 91%. For the same compound, in the assay on EAE in female Lewis rats (setting [8]), the “protection against EAE disease” value is “protected the rats from the severity of the disease”. Besides, in the assay with IFN-γ (daily i.p. treatment from day 1), the “expression of IFN-γ in EAE brain” value is recorded as “blocked the induction of IFN-γ”.
On to `O=C([O-])Cc1ccccc1.[Na+]` [NaPA, sodium salt of phenylacetic acid], for which, in assay [1], the “Production of NO” value was 9.5 ± 0.7 nmol/24 h/mg protein. Besides, in assay [2], the “Production of IL-1β” value worked out at 1.1 ± 0.2 ng/24 h/mg protein. Moreover, the “Production of IL-6” value in assay [3] is on record as 7.6 ± 0.8 ng/24 h/mg protein. Also, in assay [4], the “Lignoceric acid β-oxidation” value amounted to 826.2 ± 87.2 pmol/h/mg protein. In addition, the “protection against EAE disease” value in the assay with EAE in female Lewis rats (rat, in vivo) is on record as “protected the rats from the severity of the disease”. The “expression of IFN-γ in EAE brain” value in the assay on IFN-γ (rat, in vivo, ip) is reported as “blocked the induction of IFN-γ”. For the same compound, the “Production of TNF-α” value in assay [5] is reported as 1.7 ± 0.2 ng/24 h/mg protein.

The values above are taken from patent US8507219B2, “Method of treating inflammation with statins” (MUSC Foundation for Research Development, priority 1997, dated 2013).
